“And” between values parts separate entries of the source, which are not always exact repeats. Identical values can stand only once. Like-named read-outs stand apart in the source and are kept apart here.
Columns and labels:
[1] = system: Pseudomonas aeruginosa PAO1; assay: broth microdilution MIC, P. aeruginosa PAO1; type: cell-based; details: P. aeruginosa PAO1, planktonic cells
Protocol: (§1) The antimicrobial activities of the heteroaromatic ligands, Mn(II) complexes, and commercially available drug streptomycin were tested against standard bacterial strains: Staphylococcus aureus ATCC 6538P, Escherichia coli ATCC 8739, Pseudomonas aeruginosa PAO1 (biofilm model strain), and Pseudomonas aeruginosa LES B58 (clinical isolate). The P. aeruginosa PAO1 and LES B58 isolates were derived from the International Pseudomonas aeruginosa Reference Panel (http://bccm.belspo.be/about-us/bccm-lmg, accessed on 30 March 2021).
(§2) All bacteria species were cultivated in trypticase soy broth (TSB) medium (Biocorp, Warsaw, Poland) for 18 h at 37 °C with shaking (160 rpm). Overnight cultures of bacteria were diluted 1:100 into fresh TSB medium and then placed in each of the 96 wells of a microtiter transparent plate (Greiner, Monroe, NC, USA). The manganese(II) complexes—[Mn-pyOH-SO4]n, Mn-imCHO-NO3, Mn-imCHO-Cl, Mn-dipyCO-NO3—and the ligands—pyOH, pyCOOH—were prepared by dissolving compounds in distilled water. […] The starting stock solution was of 2-mM concentration.
(§3) The quantitative assay of the antibacterial activity was performed by the broth microdilution method, in 96-well microtiter plates, in order to establish the minimum inhibitory concentration (MIC). To this purpose, serial two-fold dilutions of the compounds ranging between 1 and 0.0625 mM were made. The details of the experiment were presented in our previous paper.

[2] = system: Pseudomonas aeruginosa LES B58; assay: broth microdilution MIC, P. aeruginosa LES B58; type: cell-based
Protocol: as §1, §2, §3

[3] = system: Staphylococcus aureus ATCC 6538P; assay: broth microdilution MIC, S. aureus; type: cell-based
Protocol: as §1, §2, §3

[4] = system: Escherichia coli ATCC 8739; assay: broth microdilution MIC, E. coli; type: cell-based
Protocol: as §1, §2, §3

[5] = system: pyoverdine secretion by P. aeruginosa PAO1; assay: pyoverdine production (spectrofluorometric); type: cell-based, Pseudomonas aeruginosa; details: 0.5 mM complexes, 24 h, vs negative control (TSB medium with inoculated bacteria)
[6] = system: P. aeruginosa PAO1 biofilm; assay: biofilm formation, crystal violet staining assay; type: cell-based, Pseudomonas aeruginosa; details: for % Inhibit. Biofilm (0.25 mM) / % Inhibit. Biofilm (0.5 mM): P. aeruginosa PAO1, vs untreated control
Protocol: as §2
To evaluate the effect of the compounds on P. aeruginosa biofilm formation, a crystal violet staining assay was used, following previously described protocols. The concentration of the investigated compounds was in the range 0.0625–1 mM. The amount of biofilm formed was determined by measuring the absorbance at λ = 595 nm with the Infinite M200 PRO microplate reader (Tecan, Männedorf, Switzerland). The measurement results, expressed in absorbance units, were converted into percentages to allow the comparison of numerical data obtained in different experiments.

[7] = biological target: T1, catalase from the bovine liver (Bos taurus, UniProt P00432); assay: catalase activity in the presence of the Mn(II) complexes (absorbance at 240 nm); type: biochemical; details: 0.5 mM complex, vs catalase alone
T1 construct: The catalase from the bovine liver solution; purchased Sigma–Aldrich; host or cells: bovine liver
T1 sequence (P00432 2-527 limits assumed): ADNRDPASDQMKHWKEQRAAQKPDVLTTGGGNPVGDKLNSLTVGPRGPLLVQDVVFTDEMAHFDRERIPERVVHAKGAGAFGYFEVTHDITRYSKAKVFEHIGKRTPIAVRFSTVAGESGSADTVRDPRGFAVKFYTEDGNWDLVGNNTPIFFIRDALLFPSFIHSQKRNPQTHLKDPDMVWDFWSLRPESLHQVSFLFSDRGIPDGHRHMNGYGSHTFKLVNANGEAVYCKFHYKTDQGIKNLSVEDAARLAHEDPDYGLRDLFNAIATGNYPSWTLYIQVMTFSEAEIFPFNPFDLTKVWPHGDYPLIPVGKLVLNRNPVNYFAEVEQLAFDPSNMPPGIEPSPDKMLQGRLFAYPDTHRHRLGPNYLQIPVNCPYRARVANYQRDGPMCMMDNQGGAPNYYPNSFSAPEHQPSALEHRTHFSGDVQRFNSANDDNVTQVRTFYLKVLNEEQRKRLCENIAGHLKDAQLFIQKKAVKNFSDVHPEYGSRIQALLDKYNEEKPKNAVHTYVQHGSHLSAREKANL
Protocol: First, the complexes were incubated with the catalase in the presence of a phosphate buffer, and then hydrogen peroxide was added thereto. To study the effect of the manganese complexes on the activity of CAT, its performance, in the presence of similar concentrations of the Mn complexes (0.5 mM), was investigated. The percentage of absorbance reduction over time was recorded at 240 nm. The positive control was the catalase sample in the absence of the Mn(II) complex. Figure 12 illustrates the effect of the Mn(II) complexes on the catalase activity.
The effect of the manganese complexes on the activity of catalase (CAT) was determined using the spectrophotometric method. The decrease in absorbance due to hydrogen peroxide depletion was recorded at 240 nm by the V-780 UV-Vis/NIR spectrophotometer (Jasco, Easton, MD, USA). The tests were performed in a 50-mM potassium phosphate buffer (PBS) at 37 °C, pH = 7.0. The catalase from the bovine liver solution (Sigma–Aldrich, St. Louis, MO, USA, lyophilized powder, ≥10,000 units/mg protein) was prepared in the PBS buffer as an initial dilution of ~1000 units/mL at 37 °C. The hydrogen peroxide solution, approximately 0.03% (w/w), was prepared by dilution in the PBS buffer to achieve the absorbance close to 1 a.u, and the PBS was used as a blank. The manganese complexes were diluted in the PBS buffer to stock the concentration of 1 mM. The mixture of 500 µL of the hydrogen peroxide, 1 µL of the catalase (final 1U of catalase activity), and 500 µL of the manganese complexes, previously incubated in a water bath at 37 °C, was added to a quartz cuvette (10 mm, 1 mL), closed by a cover, and placed in the spectrophotometer. The absorbance readings were performed in 10-s intervals during the first minute of the incubation time at 37 °C. The results were presented as the dependence on the percentage of the absorbance reduction over time.

[8] = system: primary human fibroblasts (VH10); assay: cytotoxicity, MTT test; type: cell-based; details: VH10 cells, 24 h, 15–1000 µM
Protocol: Primary human fibroblasts (VH10) were cultured at 37 °C in a humidified 5% CO2 atmosphere in plastic dishes in Dulbecco’s modified eagle medium (DMEM) supplemented with 10% heat inactivated fetal calf serum, 2 mM of l-glutamine, and antibiotics (100 units/mL penicillin and 100 µg/mL streptomycin). Cytotoxic properties of manganese complexes were measured by EZcount^TM MTT cell assay kit (HiMedia Laboratories Pvt., Ltd., Mumbai, India) in accordance with the manufacturer’s instructions. Cells were seeded into a 96-well plate and incubated with manganese complexes in the concentration range of 15–1000 µM for 24 h at 37 °C in a humidified atmosphere of 5% CO2. After incubation, a solution of MTT (3-[4,5-dimethylthiazol-2-yl]-2, 5-diphenyl tetrazolium bromide) at a concentration (1 mg/mL) was added to each well. After incubation at 37 °C for 4 h, 100 µL of 0.04 M HCl in isopropanol was added to each well and mixed thoroughly to dissolve the dark blue crystals. The measurement of absorbance of the solution related to the number of live cells was conducted on a TECAN Spark Microplate Reader (TECAN, Männedorf, Switzerland) at 570 nm with a reference wavelength 600 nm. All samples were tested in three independent experiments. Results were normalized to the control.
Inhibitory concentrations (IC50) represent the concentrations of the tested samples required to inhibit 50% cell proliferation and were calculated from the mean values of data from wells.

[9] = P. aeruginosa LES B58, planktonic cells
[10] = Pseudomonas aeruginosa, read-out: MIC
[11] = Pseudomonas aeruginosa, LESB58, P. aeruginosa LES B58, planktonic cells, read-out: MIC
[12] = Staphylococcus aureus, ATCC6538P, S. aureus, planktonic cells, read-out: MIC
[13] = Escherichia coli, ATCC8739, planktonic cells, read-out: MIC

| SMILES | MIC [1] | MIC [2, 9] | MIC ([3]; S. aureus, planktonic cells) | MIC ([4]; planktonic cells) | further results |
| --- | --- | --- | --- | --- | --- |
| O.O.O.O.O=[N+]([O-])[O-].O=[N+]([O-])[O-].[Mn+2] [Mn(NO3)2·4H2O] | > 1 mM and > 251 μg/ml | > 1 mM and > 251 μg/ml | > 1 mM and > 251 μg/ml | > 1 mM and > 251 μg/ml | – |
| [H]/N=C(/N)N[C@H]1[C@H](O)[C@@H](O)[C@H](O[C@@H]2O[C@@H](C)[C@](O)(C=O)[C@H]2O[C@@H]2O[C@@H](CO)[C@H](O)[C@@H](O)[C@@H]2NC)[C@@H](N/C(N)=N\[H])[C@@H]1O [Streptomycin, reference compound] | – | – | – | – | MIC [1, 10]: 62.5 µM and 36 µg/mL; MIC ([2]; Pseudomonas aeruginosa, LESB58): 125 µM; MIC [2, 11]: 73 µg/mL; MIC ([3]; Staphylococcus aureus, ATCC6538P): 125 µM; MIC [3, 12]: 73 µg/mL; MIC [4, 13]: 62.5 µM and 36 µg/mL; decrease of pyoverdine production [5]: 96% |
| OCc1ccccn1 [pyOH, 2-hydroxymethylpyridyne] | > 1 mM and > 109 μg/ml | > 1 mM and > 109 μg/ml | > 1 mM and > 109 μg/ml | > 1 mM and > 109 μg/ml | – |
| O=C(c1ccccn1)c1ccccn1.O=C(c1ccccn1)c1ccccn1.O=[N+]([O-])[O-].O=[N+]([O-])[O-].[Mn+2] [Mn-dipyCO-NO3] | > 1 mM and > 547 μg/ml | > 1 mM and > 547 μg/ml | > 1 mM and > 547 μg/ml | > 1 mM and > 547 μg/ml | % Inhibit. Biofilm (0.25 mM) [6]: 21%; % Inhibit. Biofilm (0.5 mM) [6]: 36%; Action on catalase activity [7]: attenuate the catalase activity |
| Cc1[nH]cnc1C=O.Cc1[nH]cnc1C=O.[Cl-].[Cl-].[Mn+2] [Mn-imCHO-Cl] | > 1 mM and > 346 μg/ml | > 1 mM and > 346 μg/ml | > 1 mM and > 346 μg/ml | > 1 mM and > 346 μg/ml | % Inhibit. Biofilm (0.25 mM) [6]: 24%; % Inhibit. Biofilm (0.5 mM) [6]: 29%; Action on catalase activity [7]: attenuate the catalase activity; IC50 [8]: > 1000 µM |
| O=C(c1ccccn1)c1ccccn1 [dipyCO, dipyridin-2-ylmethanone] | – | – | – | – | MIC [1, 10]: > 1000 µM and > 184 µg/mL; MIC [2, 11]: > 1000 µM and > 184 µg/mL; inhibition at 1000 µM ([6]; Pseudomonas aeruginosa, PAO1, 1 mM, P. aeruginosa biofilm): 49%; MIC [3, 12]: > 1000 µM and > 184 µg/mL; MIC [4, 13]: > 1000 µM and > 184 µg/mL |

Second part, led by results:

| MIC [1] | MIC [2, 9] | MIC ([3]; S. aureus, planktonic cells) | MIC ([4]; planktonic cells) | SMILES | further results |
| --- | --- | --- | --- | --- | --- |
| > 1 mM and > 110 μg/ml | > 1 mM and > 110 μg/ml | > 1 mM and > 110 μg/ml | > 1 mM and > 110 μg/ml | Cc1nc[nH]c1C=O [imCHO, 5(4)-carbaldehyde-4(5)-methylimidazole] | – |
| > 1 mM and > 169 μg/ml | > 1 mM and > 169 μg/ml | > 1 mM and > 169 μg/ml | > 1 mM and > 169 μg/ml | O.O=S(=O)([O-])[O-].[Mn+2] [MnSO4·H2O] | – |
| > 1 mM and > 167 μg/ml | > 1 mM and > 167 μg/ml | > 1 mM and > 167 μg/ml | > 1 mM and > 167 μg/ml | O=C(O)c1cccnc1C(=O)O [pyCOOH, pyridine-2,3-dicarboxylic anion] | – |
| > 1 mM and > 198 μg/ml | > 1 mM and > 198 μg/ml | > 1 mM and > 198 μg/ml | > 1 mM and > 198 μg/ml | O.O.O.O.[Cl][Mn][Cl] [MnCl2·4H2O] | – |

From PMC8124774, “Tuning Anti-Biofilm Activity of Manganese(II) Complexes: Linking Biological Effectiveness of Heteroaromatic Complexes of Alcohol, Aldehyde, Ketone, and Carboxylic Acid with Structural Effects and Redox Activity” (International Journal of Molecular Sciences, 2021)
